Assay results taken from patent publication US20160279190A1, “MODULATION OF AXON DEGENERATION” (GENENTECH, INC., priority 2008, published 2016).
Entries after “also recorded” stand apart in the source; their conditions may differ. Starred links: 1 amine or outer side, 2 acyl side, 3 side chain; linkers in the order of their positions; H or OH if unused. Positions of bridges follow the written chain, without caps; N, C: chain ends. Non-standard residues stand in square brackets, D forms with d. Residues, ends and D or L forms follow the SMILES beside them. Chains are numbered I, II in the order given. Actinocin(9to1) = Cc1c2oc3c(C)ccc(C(=O)[*:1])c3nc-2c(C(=O)[*:2])c(N)c1=O; NMeV = CN[C@H](C(=O)O)C(C)C; Sar = CNCC(=O)O

Test system: DRGs
Experiment: Campenot chamber local axon degeneration, anti-NGF in axon compartment
Type: cell-based, mouse
Conditions: for Axon Compartment (axon protected when inhibitor is in axon compartment) / Cell Body Compartment (axon protected when inhibitor is in cell body compartment): anti-NGF in axon compartment, 28 hours
Protocol: Teflon dividers (Tyler Research) were cleaned by washing in water and wiping them clean of any residual grease. Dividers were then soaked in Nochromix (Godax Laboratories)/sulfuric acid overnight, rinsed five times in distilled and autoclaved water (SQ water), boiled for 30 minutes, and then air-dried before use.
Mouse laminin (5 μg/ml in sterile filtered water; Invitrogen) was added to PDL coated 35 mm dishes (BD Biosciences) and they were incubated for 1 hour at 37° C., followed by two rinses in SQ water. The dishes were vacuum-dried and then air-dried in a laminar flow hood for 15 minutes. Prepared dishes were then scored with a pin rake (Tyler Research). […] High vacuum grease (VWR) was added to each Teflon divider under a dissection scope. The laminin coated PDL dishes were inverted and dropped onto the Teflon divider, with additional pressure added by use of a toothpick in the non-track-containing regions. Dishes were incubated for 1 hour at 37° C. Five hundred microliters of NBM+MC (50 ng/ml NGF) solution was added to each of the side compartments, and a grease barrier was added in front of the center cell slot.
Free E13.5 spinal cords were dissected from mouse embryos and placed into NBM+MC (25 ng/ml NGF) solution. DRGs were detached from the spinal cord with a tungsten needle. An NBM+MC-lubricated P200 pipette was used to move DRGs into a 1.5 ml tube. DRGs were pelleted with a tabletop centrifuge for 30 seconds. The supernate was discarded and 0.05% Trypsin/EDTA (cold) was added. The pellet was resolubilized with a pipette and incubated at 37° C. for 15 minutes with constant agitation (650 RPM). The sample was again centrifuged and the supernate discarded. The pellet was resuspended in warm NBM+MC (50 ng/ml NGF) solution and triturated with a flamed glass pipette 20 times, followed by trituration with a fire-bored glass pipette another 20 times. The samples were again centrifuged and the resulting pellets were resuspended in 0.5 ml NBM+MC (50 ng/ml NGF) solution. The cells were diluted to a final concentration of 2.5×10^6 cells/ml. The cell suspensions were loaded into a 1 ml syringe with a 22 gauge needle. The center slot of the Campenot divider was filled using the syringe (to a volume of at least 50 μl). The Campenot chamber was incubated overnight at 37° C. 2.5 ml NGF+MC (50 ng/ml NGF) solution was added to the center compartment and the grease gate was removed. The outer medium (cell body compartment) was replaced after three days with 2.5 ml NBM+MC medium (with 25 ng/ml NGF). After five days in culture, one distal compartment was washed three times with warmed NBM+MC (no NGF) solution. After the third wash, 500 μl NBM+MC (no NGF) solution was added to the axon compartment in combination with either 0.5% DMSO or an inhibitor. The cell body compartment was replaced with 2.5 ml NBM+MC medium (with 25 ng/ml NGF) containing either 0.5% DMSO or inhibitor.
After 28 hours of anti-NGF antibody treatment, 8% PFA/30% sucrose solution (see above) was added directly to the culture medium at a 1:1 dilution and incubated for 30 minutes. The Teflon divider was removed after the first 15 minutes of addition. The system was washed once with 2.5 ml PBS prior to immunostaining. Neurons were blocked in 5% BSA/0.2% triton in PBS for 30 minutes. The primary antibody Tuj1 (Covance) was added to a final dilution of 1:1000 in PBS containing 2% BSA and incubated overnight at 4° C. The dish was washed once with PBS. […] The dish was washed twice with PBS, and a 22×22 mm coverslip (VWR) was added with 350 μl of fluoromount G (Electron Microscopy Sciences). The neurons were visualized by use of a fluorescence microscope.
As described above, E13.5 DRGs were isolated and grown for 5 days in a Campenot chamber.

[1] = inhibitor 15 μM, listed as Act D

## COc1ccc(CNC(=O)Nc2ncc([N+](=O)[O-])s2)cc1 [AR-A014418]
Inhibitor 20 μM
  Axon Compartment (axon protected when inhibitor is in axon compartment): No (1)
  Cell Body Compartment (axon protected when inhibitor is in cell body compartment): Yes (1)

## Cc1c2oc3c(C)ccc(C(=O)N[C@@H]4C(=O)N[C@H](C(C)C)C(=O)N5CCC[C@H]5C(=O)N(C)CC(=O)N(C)[C@@H](C(C)C)C(=O)O[C@@H]4C)c3nc-2c(C(=O)N[C@@H]2C(=O)N[C@H](C(C)C)C(=O)N3CCC[C@H]3C(=O)N(C)CC(=O)N(C)[C@@H](C(C)C)C(=O)O[C@@H]2C)c(N)c1=O [Actinomycin D] (I: T[dV]P[Sar][NMeV] / II: T[dV]P[Sar][NMeV]; ester I:1-I:C, II:1-II:C; linker I:N-II:N via Actinocin(9to1))
Cell body inhibitors added to cell body compartment: 30 μM SB415, 15 μM Act D
  formation of varicosities in locally NGF-deprived axons: large number of axons with varicosities, as well as fragmented axons
Inhibitor 15 μM
  Axon Compartment (axon protected when inhibitor is in axon compartment): No (4)
  Cell Body Compartment (axon protected when inhibitor is in cell body compartment): Yes (4)
[1]
  Axon Compartment (axon protected when inhibitor is in axon compartment): failed to prevent degeneration
  Cell Body Compartment (axon protected when inhibitor is in cell body compartment): did not degenerate; also recorded: protected from local degeneration

## C[C@@H]1C[C@@H]([C@H](O)CC2CC(=O)NC(=O)C2)C(=O)[C@@H](C)C1 [Cycloheximide]
Inhibitor 5 μM
  Axon Compartment (axon protected when inhibitor is in axon compartment): No (2)
  Cell Body Compartment (axon protected when inhibitor is in cell body compartment): Yes (2)

## C=C[C@@]1(C)CC(=O)[C@]2(O)[C@@]3(C)[C@@H](O)CCC(C)(C)[C@@H]3[C@H](O)[C@H](OC(C)=O)[C@@]2(C)O1 [Forskolin]
Inhibitor 3 μM
  Axon Compartment (axon protected when inhibitor is in axon compartment): Yes (2)
  Cell Body Compartment (axon protected when inhibitor is in cell body compartment): Yes (2)

## O=C1NC(=O)C(c2cn(CCCO)c3ncccc23)=C1c1cnccn1 [GSK3 inhibitor XI]
Inhibitor 30 μM
  Axon Compartment (axon protected when inhibitor is in axon compartment): No (2)
  Cell Body Compartment (axon protected when inhibitor is in cell body compartment): Yes (2)

## CCN(c1ccccc1)c1cc(NC)[n+](C)c(C)n1.[Cl-] [ZD7288]
Inhibitor 5 μM
  Axon Compartment (axon protected when inhibitor is in axon compartment): No (3)
  Cell Body Compartment (axon protected when inhibitor is in cell body compartment): Yes (3)
